Where a name gives a salt, the structure may show the parent alone.
Key:
gap junctions = target: T1, gap junctions (Homo sapiens, UniProt P17302); experiment: transport of calcein from outer shell to core of KGN spheroids (compartmentalization analysis); assay type: cell-based
T1 construct: endogenous in cells; host or cells: KGN human granulosa cell line, self-assembled 3D spheroids
Protocol: (§1) KGN cells, a human granulosa cell line, were grown in DMEM^29. OVCAR-3 and SK-OV-3 cells were grown in Roswell Park Memorial Institute medium (RPMI; Invitrogen). Both media were supplemented with 10% fetal bovine serum (FBS) (Thermo Fisher Scientific, Waltham, Mass.) and 1% penicillin/streptomycin and grown at 37° C. and 10% CO2. Cells were trypsinized using 0.05% trypsin and resuspended to the desired cell concentration. Spheroids that were pre-stained were formed from cells incubated with 5 μM CellTracker™ Red CMPTX, CellTracker™ Green CMFDA, or CellTracker™ Blue CMAC (Invitrogen) in serum-free DMEM for 1 hour prior to trypsinization. 75 μl of the cell suspension was pipetted into the seeding chamber of each gel. Cells were allowed to settle for 20 minutes and 4 mL of medium was added. Cells self-assembled for 24 hours to form spheroids before experimentation.
(§2) Quantitative image analysis was performed using a custom MATLAB (Mathworks, Natick, Mass.) program. Briefly, fifty evenly spaced radii were drawn across each spheroid and fluorescence at each pixel was averaged. […] Total spheroid fluorescence was determined by the integration of the fluorescent profiles (Equation 2). To compare data across experiments, we normalized the spheroids to the fluorescence per depth of single cells at the final time point.
(§3) To measure uptake of calcein-AM and transport of calcein, medium was removed from the hydrogels containing self-assembled KGN spheroids (24 hours), and replaced with serum-free DMEM containing 1 μM calcein-AM (Invitrogen). […] Images were taken once per hour for 11 hours, at 37° C. and 10% CO2.
(§4) Hydrogels were equilibrated with a drug-containing medium overnight at 37° C. and 10% CO2, and spheroids were self-assembled for 24 hours in their respective drug concentration. […] A working solution of carbenoxolone (Sigma) was prepared by diluting appropriate volumes of a 10 mM stock solution into serum-free medium. Spheroids were assembled for 24 hours and then pretreated with carbenoxolone for 5 hours prior to adding calcein-AM for the uptake assay. Medium containing drug and calcein-AM were used for the uptake assay.
To deconvolve this fluorescent signal into an average 3D radial profile, the spheroid was estimated as a series of concentric spheres (multi-layers). Each layer (shell) was 14 μm in width and contained a homogenous concentration of fluorescent calcein (FIGS. 3C and D). The total fluorescence f(i) at X, layer is sum of the fluorescence contribution from all shells at Xi. Mathematically, the total fluorescence can be written as
[formula] Here, fnorm(j) is the fluorescence/height in the i^th shell and h(i, j) is the height at point (Xi, Yj). Note h(i, i)=0 lies at the centerline of the spheroid. […] Equation (4) results in the following iterative formula: […]
The inner core was taken as about≧14 μm from the center in the smallest dimension to ensure the core contained whole cells.

Pgp [1] = target: T2, Pgp (Homo sapiens, UniProt P08183); experiment: cell-based
Protocol: as §1, §2, §3, §4

KGN spheroids = experiment: loss of calcein from calcein-loaded KGN spheroids; assay type: cell-based, human; conditions: after 135 minutes calcein-AM loading
Protocol: To measure uptake of calcein-AM and transport of calcein, medium was removed from the hydrogels containing self-assembled KGN spheroids (24 hours), and replaced with serum-free DMEM containing 1 μM calcein-AM (Invitrogen). Fluorescent imaging of calcein began immediately and images were taken at regular intervals over 135 minutes at 37° C. and 10% CO2. To measure loss or loss of calcein, hydrogels containing KGN spheroids that had been incubated with calcein-AM for 135 minutes, thus loading the spheroids with calcein, were rinsed with DMEM and incubated in DMEM without calcein-AM. Images were taken once per hour for 11 hours, at 37° C. and 10% CO2.

Pgp [2] = target: T2, Pgp; conditions: 2D, calcein-AM assay, concentrations ranging from 1-100 μM; cited from earlier work
[3] = 1 μM calcein-AM, 75 minutes, n=15
[4] = 5 μM drug, 1 μM calcein-AM, 110 minutes
[5] = 5 μM drug, normalized data, 110 minutes

T2 sequence (P08183 whole entry): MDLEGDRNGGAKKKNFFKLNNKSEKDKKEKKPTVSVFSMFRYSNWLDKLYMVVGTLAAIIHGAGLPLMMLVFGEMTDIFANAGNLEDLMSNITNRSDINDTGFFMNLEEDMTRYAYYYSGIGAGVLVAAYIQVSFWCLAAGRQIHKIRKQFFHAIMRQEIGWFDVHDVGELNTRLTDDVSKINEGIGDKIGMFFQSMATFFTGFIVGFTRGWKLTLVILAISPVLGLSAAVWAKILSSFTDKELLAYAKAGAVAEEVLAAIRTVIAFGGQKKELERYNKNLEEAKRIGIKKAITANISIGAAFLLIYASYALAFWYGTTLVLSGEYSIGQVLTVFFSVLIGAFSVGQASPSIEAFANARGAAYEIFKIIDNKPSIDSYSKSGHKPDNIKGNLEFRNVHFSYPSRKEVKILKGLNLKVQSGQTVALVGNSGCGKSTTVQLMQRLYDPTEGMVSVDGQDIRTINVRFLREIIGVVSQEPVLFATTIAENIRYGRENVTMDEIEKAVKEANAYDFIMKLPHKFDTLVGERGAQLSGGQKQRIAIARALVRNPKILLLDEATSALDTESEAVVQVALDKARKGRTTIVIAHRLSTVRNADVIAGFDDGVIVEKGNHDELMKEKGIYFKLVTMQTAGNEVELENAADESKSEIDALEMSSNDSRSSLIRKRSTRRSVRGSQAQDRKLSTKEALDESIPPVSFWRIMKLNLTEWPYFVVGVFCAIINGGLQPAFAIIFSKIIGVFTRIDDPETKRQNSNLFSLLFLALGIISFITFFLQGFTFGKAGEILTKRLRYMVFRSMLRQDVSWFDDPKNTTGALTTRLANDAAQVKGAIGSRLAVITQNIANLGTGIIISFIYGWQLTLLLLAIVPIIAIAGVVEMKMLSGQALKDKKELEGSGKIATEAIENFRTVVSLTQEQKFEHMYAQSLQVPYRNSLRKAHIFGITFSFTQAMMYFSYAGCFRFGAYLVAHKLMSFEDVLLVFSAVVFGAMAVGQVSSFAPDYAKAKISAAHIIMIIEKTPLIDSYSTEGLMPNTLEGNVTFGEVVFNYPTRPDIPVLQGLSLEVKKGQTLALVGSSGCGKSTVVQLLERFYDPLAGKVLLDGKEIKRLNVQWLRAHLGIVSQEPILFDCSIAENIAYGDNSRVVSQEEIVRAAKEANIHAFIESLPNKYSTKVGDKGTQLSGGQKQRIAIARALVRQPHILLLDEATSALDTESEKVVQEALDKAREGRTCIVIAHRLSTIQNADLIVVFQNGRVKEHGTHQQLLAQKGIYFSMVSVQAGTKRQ
T1 sequence (P17302 2-382 limits assumed): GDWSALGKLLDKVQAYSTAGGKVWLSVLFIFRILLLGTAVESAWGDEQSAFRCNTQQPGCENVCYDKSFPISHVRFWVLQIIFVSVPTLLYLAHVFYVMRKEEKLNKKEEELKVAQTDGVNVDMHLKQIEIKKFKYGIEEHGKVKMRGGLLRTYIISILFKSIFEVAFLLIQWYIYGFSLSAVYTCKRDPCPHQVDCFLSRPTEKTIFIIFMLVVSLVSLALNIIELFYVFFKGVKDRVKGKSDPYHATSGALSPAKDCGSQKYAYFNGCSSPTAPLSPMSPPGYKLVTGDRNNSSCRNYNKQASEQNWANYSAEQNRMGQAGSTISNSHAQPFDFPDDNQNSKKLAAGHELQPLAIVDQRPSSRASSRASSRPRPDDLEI

| Compound | percentage of calcein in the core compared to controls (gap junctions; [3]) | percentage of calcein in the outer shell compared to controls (gap junctions; [3]) | IC50 (gap junctions; 1 μM calcein-AM, 75 minutes, read-out: half-maximal response, inhibition of gap junctions (fraction of calcein compartmentalized to outer shell)) [µM] | calcein in the core, fold less than controls (gap junctions; CBX 100 μM, 1 μM calcein-AM, 135 minutes) [fold] | percentage of calcein in the core (gap junctions; CBX 100 μM, 135 minutes, n=18, untreated 15±3%) [%] | percentage of calcein in the outer shell (gap junctions; CBX 100 μM, 135 minutes, n=18, untreated 27±3%) [%] | IC50 (Pgp [1]) [µM] | calcein in the outer shell, fold higher than controls (Pgp [1]; human, 135 min, 100 μM) [fold] | effect on loss of total spheroid calcein (KGN spheroids) | initial rate of calcein loss from the outer shell (KGN spheroids; drug-free medium, control 17±3% per hour, p<0.05) [% per hour] | calcein concentration in the core of the spheroid compared to untreated (gap junctions; [4]) | percentage of calcein in the core compared to control (gap junctions; [5]) | percentage of calcein in the outer most shell compared to control (gap junctions; [5]) | percent maximum inhibition (Pgp [2]) [%] | calcein in the outer shell compared to untreated controls (Pgp [1]; [4]) | total concentration of calcein in the spheroids compared to untreated controls (Pgp [1]; [4]) |
| --- | --- | --- | --- | --- | --- | --- | --- | --- | --- | --- | --- | --- | --- | --- | --- | --- |
| CC1(C)[C@@H](OC(=O)CCC(=O)O)CC[C@]2(C)[C@H]3C(=O)C=C4[C@@H]5C[C@@](C)(C(=O)O)CC[C@]5(C)CC[C@@]4(C)[C@]3(C)CC[C@@H]12 [carbenoxolone] | reduced | increased | 9.4 | 8 | 0.5±2 | 52±4 | 81 | 3 | no effect | 13±1 |  |  |  |  |  |  |
| CN(C)C(=O)C(CCN1CCC(O)(c2ccc(Cl)cc2)CC1)(c1ccccc1)c1ccccc1 [loperamide, loperamide hydrochloride] |  |  |  |  |  |  |  |  |  |  | did not increase | decreased | increased | 76.3 | significantly increased | significantly increased |

Reference: patent publication US9468680B2, “Differential effects of drugs on transport in a multi-layer 3D spheroid model” (Brown University, priority 2011, dated 2016)
